The target in this test is Trace amine-associated receptor 1 (Homo sapiens) (UniProt Q96RJ0). The test can be described thus: blockers of human TAAR1 receptor – cell-based, fluorescence, MDRUN002, late-stage follow-up (AID 1053178). As to conditions: CHO TAAR1 cells, cAMP TR-FRET, PEA-stimulated antagonism. A general note: In TR-FRET formats the signal depends on donor and acceptor labels being close together.

Here are results for 7 compounds from PubChem BioAssay AID1053178 (The Scripps Research Institute Molecular Screening Center, 2014).

In general, IC50 refers to the concentration that gives 50% inhibition.

The source made the active and inactive calls.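 The calls were made as follows: active = IC50 at or below 10 µM; inactive = IC50 above 10 µM.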 A value given as a limit tells only on which side of the number the result lay.

Chain of Trace amine-associated receptor 1 (Homo sapiens) (Q96RJ0 whole entry, looked up): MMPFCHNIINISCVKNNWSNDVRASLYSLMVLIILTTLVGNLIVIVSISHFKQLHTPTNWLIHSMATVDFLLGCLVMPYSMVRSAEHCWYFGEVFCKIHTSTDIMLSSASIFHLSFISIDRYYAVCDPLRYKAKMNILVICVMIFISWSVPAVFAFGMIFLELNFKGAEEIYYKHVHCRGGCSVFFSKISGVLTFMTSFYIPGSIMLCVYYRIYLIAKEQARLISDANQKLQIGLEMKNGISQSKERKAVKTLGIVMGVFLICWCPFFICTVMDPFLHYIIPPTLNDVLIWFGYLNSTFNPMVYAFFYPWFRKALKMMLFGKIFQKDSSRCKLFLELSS

For the compound `N#Cc1c(C(F)(F)F)cc(-c2ccc(Cl)cc2)nc1SCC(=O)N1CCCCCC1`, the IC50 entry was “inactive”. The value for `COc1cc(C(=O)CCN2CCC(c3ccccc3)C2)cc(OC)c1OC` (configuration not stated) was > 37.4 µM (inactive). The value for `N#Cc1c(C(F)(F)F)cc(-c2ccc(Cl)cc2)nc1SCC(=O)Nc1ncccn1` was 0.00433 µM; that for `O=C(CCN1CCC(c2ccccc2)C1)c1ccccc1` (configuration not stated) was > 37.4 µM (inactive). The result for `N#Cc1c(C(F)(F)F)cc(-c2ccc(Cl)cc2)nc1SCC(=O)N1CCCC1` reads 0.179 µM; that for `CC(CN1CCCC1Cc1ccccc1)C(=O)c1ccc2c(c1)OCCO2` (configuration not stated), > 37.4 µM (inactive); that for `Cc1ccc(C(=O)CCN2CCC(c3ccccc3)C2)cc1` (configuration not stated), > 37.4 µM (inactive).
